Test results from patent US10060934B2, “Methods for screening patients for resistance to angioinhibition, treatment and prophylaxis thereof” (NANOPHARMACEUTICALS LLC, priority 2013, dated 2018).

Columns and labels:
[1] = biological target: integrin αvβ3 (Homo sapiens, UniProt P05106+P06756); settings: cited from earlier work
[2] = system: human breast cancer cells; settings: in vitro; cited from earlier work
[3] = system: glioma cells; settings: in vitro; cited from earlier work
[4] = system: basic fibroblast growth factor (bFGF, FGF2), vascular endothelial growth factor (VEGF); settings: in the absence of thyroid hormone; cited from earlier work
[5] = system: chick chorioallantoic membrane (CAM); assay: Chick chorioallantoic membrane (CAM) angiogenesis assay; type: in vivo; settings: pro-angiogenic factor alone
Protocol: Examples of the CAM assay methodology may include the step of providing chick embryos. In some embodiments, the chick embryos may be approximately 10 days old. The chick embryos may be incubated at approximately 37° C. with approximately 55% relative humidity. A hypodermic needle may be used to make a small hole in the shell concealing an air sac, and a second hole may be made on the broad side of the egg, directly over an avascular portion of the embryonic membrane. A false air sac may be created beneath the second hole by the application of negative pressure at the first hole, causing the CAM to separate from the shell. A window, approximately 1.0 cm^2, in size may be cut in the shell over the CAM with a small-crafts grinding wheel, allowing direct access to the underlying CAM. In some embodiments, a pro-angiogenic agent may be provided to induce new blood vessel branches on the CAM of 10-day-old embryos. In the exemplary embodiment, the pro-angiogenic agents may be the endogenous non-peptide pro-angiogenic hormones supplied in the patient's blood sample. The patient's blood sample may subsequently be introduced into the xenograft having a vasculature system in the CAM. The pro-angiogenic agent, the blood or serum sample of the patient along with one or more anti-angiogenic agents may be applied to a sterile disk and followed by allowing the disks to dry. In some embodiments of the CAM assay, Sterile disks of No. 1 filter paper (Whatman International) may be pretreated with approximately 3 mg/mL cortisone acetate and 1 mmol/L of the patient's blood or serum, along with one or more anti-angiogenic agents and air dried under sterile conditions. The disks may then be suspended in phosphate buffered saline (PBS) and placed on growing CAMs. At approximately the 24 hour mark, a mitogen-activated protein kinase (MAPK) cascade inhibitor such as PD 98059 may also be added to CAMs topically by means of the filter disks. Exemplary embodiments having one or more anti-angiogenic agent, may include two, three, four, five or more anti-angiogenic agents, including at least one thyroid hormone antagonist such as tetrac, triac, or conjugated tetrac or triac. After incubation at 37° C. with 55% relative humidity for 3 days, the CAM tissue directly beneath each filter disk may be resected and treated. The tissues may subsequently be washed approximately three times with PBS, placed in 35-mm Petri dishes (Nalge Nunc), and examined under a stereomicroscope at approximately 50× magnification or more. Digital images of CAM sections exposed to filters may be collected and quantified using a 3-charge-coupled device color video camera system and analyzed with Image-Pro software (Media Cybernetics) or equivalent software. Embodiments of the CAM system may not only index tumor-related angiogenesis, but permits spherical tumor growth of the implanted cells. Spherical growth may be important to the development of a hypoxic cell population that resemble tumor behavior clinically. Aggressive xenograft behavior in the CAM model may include metastasis to the chick embryo in the system.

integrin αvβ3, sequence (P06756 31-889 limits assumed): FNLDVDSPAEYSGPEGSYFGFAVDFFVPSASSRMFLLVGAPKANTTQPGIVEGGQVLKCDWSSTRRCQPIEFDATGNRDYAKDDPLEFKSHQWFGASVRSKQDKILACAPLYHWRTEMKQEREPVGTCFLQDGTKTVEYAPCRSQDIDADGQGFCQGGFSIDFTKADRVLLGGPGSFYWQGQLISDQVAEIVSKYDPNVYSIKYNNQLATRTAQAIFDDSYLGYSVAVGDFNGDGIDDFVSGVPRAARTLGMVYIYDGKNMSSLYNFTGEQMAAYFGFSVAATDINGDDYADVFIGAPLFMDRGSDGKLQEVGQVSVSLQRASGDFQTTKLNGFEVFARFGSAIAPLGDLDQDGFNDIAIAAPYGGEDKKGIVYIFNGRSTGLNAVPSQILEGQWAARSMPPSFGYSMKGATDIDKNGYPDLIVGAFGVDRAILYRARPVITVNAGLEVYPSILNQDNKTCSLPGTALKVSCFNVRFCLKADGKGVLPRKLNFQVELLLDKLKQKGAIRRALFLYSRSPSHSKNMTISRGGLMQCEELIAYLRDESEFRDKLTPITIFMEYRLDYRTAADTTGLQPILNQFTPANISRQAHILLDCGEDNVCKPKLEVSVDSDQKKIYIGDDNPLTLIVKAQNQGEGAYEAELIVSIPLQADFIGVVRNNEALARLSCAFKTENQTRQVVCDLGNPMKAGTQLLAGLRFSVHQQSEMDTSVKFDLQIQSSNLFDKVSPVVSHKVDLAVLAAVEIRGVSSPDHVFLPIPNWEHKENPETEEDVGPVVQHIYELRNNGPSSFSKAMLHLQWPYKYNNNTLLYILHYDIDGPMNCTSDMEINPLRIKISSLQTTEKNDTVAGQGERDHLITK
integrin αvβ3, sequence (P06756 891-1048 partner limits assumed): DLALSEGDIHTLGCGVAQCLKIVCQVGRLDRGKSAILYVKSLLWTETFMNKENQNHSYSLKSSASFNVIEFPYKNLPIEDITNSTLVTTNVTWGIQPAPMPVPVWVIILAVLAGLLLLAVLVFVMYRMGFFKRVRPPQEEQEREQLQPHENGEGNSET
integrin αvβ3, sequence (P05106 27-788): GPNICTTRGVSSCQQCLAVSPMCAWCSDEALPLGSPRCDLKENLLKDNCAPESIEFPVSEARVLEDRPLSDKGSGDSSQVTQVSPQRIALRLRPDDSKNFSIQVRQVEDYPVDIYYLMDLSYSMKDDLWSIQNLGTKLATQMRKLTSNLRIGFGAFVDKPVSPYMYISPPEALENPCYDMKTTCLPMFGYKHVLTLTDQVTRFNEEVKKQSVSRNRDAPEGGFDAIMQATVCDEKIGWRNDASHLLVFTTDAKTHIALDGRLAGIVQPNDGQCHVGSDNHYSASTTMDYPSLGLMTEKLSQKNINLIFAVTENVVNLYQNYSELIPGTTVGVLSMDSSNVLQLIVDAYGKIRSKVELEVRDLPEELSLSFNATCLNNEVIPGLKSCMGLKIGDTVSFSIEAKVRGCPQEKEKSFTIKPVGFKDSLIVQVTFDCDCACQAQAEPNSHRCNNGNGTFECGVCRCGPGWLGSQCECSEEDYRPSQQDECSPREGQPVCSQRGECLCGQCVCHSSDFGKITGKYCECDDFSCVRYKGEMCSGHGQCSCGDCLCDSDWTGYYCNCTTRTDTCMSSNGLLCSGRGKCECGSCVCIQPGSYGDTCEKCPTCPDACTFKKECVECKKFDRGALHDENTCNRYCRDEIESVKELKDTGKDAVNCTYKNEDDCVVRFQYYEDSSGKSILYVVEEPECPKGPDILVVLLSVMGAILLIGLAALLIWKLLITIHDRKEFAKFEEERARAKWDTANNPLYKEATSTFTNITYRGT

Molecule | Branch points ± SEM [5] | also measured
Tetraiodothyroacetic acid [tetrac] | – | agonist activity at the integrin [1]: no agonist activity; binding of T4 and T3 to the integrin [1]: inhibits binding; growth of human breast cancer cells [2]: arrest growth; growth of glioma cells [3]: arrest growth; angiogenic activity of bFGF, VEGF and other pro-angiogenic factors [4]: blocks the angiogenic activity
N[C@@H](Cc1cc(I)c(Oc2ccc(O)c(I)c2)c(I)c1)C(=O)O [T3, 3,5,3′-triiodo-L-thyronine] | 186.8 ± 16.4 | –
bFGF: basic fibroblast growth factor | 184.6 ± 18.5 | –
VEGF | 182.4 ± 8.4 | –
Angiotensin II (DRVYIHPF; Angiotensin-2; UniProt P01019 25-32, looked up) [small molecule that supports neovascularization; pro-angiogenic factor in the CAM assay] | 103.2 ± 25.9 | –
N[C@@H](Cc1cc(I)c(Oc2cc(I)c(O)c(I)c2)c(I)c1)C(=O)O [T4, L-thyroxine] | 119.2 ± 15.6 | –
